From patent EP0612731B1, “Novel guinolone and naphthyridone derivatives” (BAYER AG, priority 1993, dated 1994)

The compounds below were run on HIV (assay: HIV infection in cell culture (syncytium formation in HIV-infected PBLs, modified method of Pauwels et al.)). Conditions: Human immunodeficiency virus 1, Lymphocyte, 72 h; HIV-infected normal human blood lymphocytes (PBL's); concentration suppressing 50% (ca. 10 Syncytien) of virus-induced syncytia; microscopic read-out day 3 to 6 after infection, 37°C.
Format: cell-based
Method: Der HIV-Test wurde mit geringen Modifikationen nach der Methode von Pauwels et al. [vgl. Journal of Virological Methods 20, (1988), 309-321] durchgeführt.
Normale menschliche Blutlymphozyten (PBL's) wurden über Ficoll-Hypaque angereichert und im RPMI 1640, 20% fötales Kälberserum mit Phythaemagglutinin (90 µg/ml) und Interleukin-2 (40 U/ml) stimuliert. Zur Infektion mit dem infektiösen HIV wurden PBL's pelletiert und das Zellpellet wurde anschließend in 1 ml HIV-Virusadsorptionslösung suspendiert und 1 Stunde bei 37°C inkubiert.
Die Virusadsorptionslösung wurde zentrifugiert und das infizierte Zellpellet in Wachstumsmedium aufgenommen, so daß 1 x 10^5 Zellen pro ml eingestellt waren. Die derart infizierten Zellen wurden zu 1 x 10^4 Zellen/Napf in die Näpfe von 96er Mikrotiterplatten pipettiert.
Die erste vertikale Reihe der Mikrotiterplatte enthielt nur Wachstumsmedium und Zellen, die nicht infiziert, aber ansonsten genauso wie oben beschrieben, behandelt worden waren (Zellkontrolle). Die zweite vertikale Reihe der Mikrotiterplatte erhielt nur HIV-infizierte Zellen (Viruskontrolle) in Wachstumsmedium. Die übrigen Näpfe enthielten die erfindungsgemäßen Verbindungen in unterschiedlichen Konzentrationen, ausgehend von den Näpfen der 3. vertikalen Reihe der Mikrotiterplatte, von der die Prüfsubstanzen in 2er Schritten 2^10fach verdünnt wurden.
Die Testansätze wurden so lange bei 37°C inkubiert, bis in der unbehandelten Viruskontrolle die für das HIV typische Syncytienbildung auftrat (zwischen Tag 3 und 6 nach Infektion), die dann mikroskopisch ausgewertet wurde. In der unbehandelten Viruskontrolle resultierten unter diesen Testbedingungen etwa 20 Syncytien, während die unbehandelte Zellkontrolle keine Syncytien aufwies.
Die IC50-Werte wurden als die Konzentration der erfindungsgemäßen Verbindungen ermittelt, bei der 50% (ca. 10 Syncytien) der virusinduzierten Syncytien durch die Behandlung mit der erfindungsgemäßen Verbindung unterdruckt waren.
COc1cccc(N2CCN(c3cc4c(cc3F)c(=O)c(C(=O)O)cn4-c3ccc(Cn4ccnn4)cc3)CC2)c1 [Beispiel 8] was tested, and the IC50 was 3000 nM. O=C(O)c1cn(-c2ccc(Cn3ccnn3)cc2)c2cc(N3CCN(c4cccc(Cl)c4)CC3)c(F)cc2c1=O [Beispiel 14] gave an IC50 of 700 nM. Compound O=C(O)c1cn(-c2ccc(Cn3ccnn3)cc2)c2nc(N3CCN(c4ccccc4)CC3)c(F)cc2c1=O [Beispiel 20, 6-Fluor-1,4-dihydro-4-oxo-7-(4-phenylpiperazin-1-yl)-1-[4-(1H-1,2,3-triazol-1-yl-methyl)-phenyl]-1,8-naphthyridin-3-carbonsäure] has an IC50 of 200 nM. O=C(O)c1cn(-c2ccc(Cn3ccnn3)cc2)c2nc(N3CCN(c4cccc(Cl)c4)CC3)c(F)cc2c1=O [Beispiel 23] showed an IC50 of 400 nM. Compound O=C(O)c1cn(-c2ccc(Cn3nccn3)cc2)c2cc(N3CCN(c4cccc(Cl)c4)CC3)c(F)cc2c1=O [Beispiel 31] has an IC50 of 700 nM. O=C(O)c1cn(-c2ccc(Cn3cncn3)cc2)c2cc(N3CCN(c4ccccc4)CC3)c(F)cc2c1=O [Beispiel 39, 6-Fluor-1,4-dihydro-4-oxo-7-(4-phenylpiperazin-1-yl)-1-[4-(1H-1,2,4-triazol-1-yl-methyl)phenyl]-3-chinolin-carbonsäure] gave an IC50 of 250 nM. Compound O=C(O)c1cn(-c2ccc(Cn3cncn3)cc2)c2nc(N3CCN(c4ccccc4)CC3)c(F)cc2c1=O [Beispiel 50, 6-Fluor-1,4-dihydro-4-oxo-7-(4-phenylpiperazin-1-yl)-1-[4-(1H-1,2,4-triazol-1-yl-methyl)phenyl]-1,8-naphthyridin-3-carbonsäure] has an IC50 of 500 nM. Work on O=C(O)c1cn(-c2ccc(Cn3cncn3)cc2)c2nc(N3CCN(c4ccc(F)cc4)CC3)c(F)cc2c1=O [Beispiel 51] yielded an IC50 of 200 nM. For O=C(O)c1cn(-c2cccc(Cn3ccnn3)c2)c2cc(N3CCN(c4cccc(Cl)c4)CC3)c(F)cc2c1=O [Beispiel 69], the IC50 was 700 nM. O=C(O)c1cn(-c2cccc(Cn3cncn3)c2)c2nc(N3CCN(c4ccc(Cl)cc4)CC3)c(F)cc2c1=O [Beispiel 92] gave an IC50 of 600 nM. Compound CCOC(=O)c1cn(-c2ccccc2Cn2nccn2)c2cc(N3CCN(c4cccc(Cl)c4)CC3)c(F)cc2c1=O [Beispiel 113] has an IC50 of 2000 nM. CCOc1ccccc1N1CCN(c2c(F)cc3c(=O)c(C(=O)O)cn(-c4ccc(Cn5cncn5)cc4)c3c2F)CC1 [Beispiel 146] was tested, and the IC50 was 700 nM.
